# ChEMBL document CHEMBL6103624, “Design, Synthesis, and Biological Evaluation of Marchantin C-NO Donor Hybrids for Overcoming Pgp-Mediated Drug Resistance by Targeting Lysosome” (J Med Chem, 2025)
# Activity calls are given as the source filed them. The calls are words filed in the database; no cut-off is given here.
# Assays:
# MCF7 [1] = test: Antiproliferative activity against human MCF7 cells assessed as inhibition of cell growth incubated for 48 hrs by MTT assay; assay type: functional, cell-based; conditions: MCF7, 48 h
# NCI/ADR-RES [2] = test: Antiproliferative activity against human MCF7ADR cells assessed as inhibition of cell growth incubated for 48 hrs by MTT assay; assay type: functional, cell-based
# [3] = Selectivity index, ratio of IC50 for antiproliferative activity against human MCF7 cells assessed as inhibition of cell growth to IC50 for antiproliferative activity against human MCF7ADR cells assessed as inhibition of cell growth; assay type: functional
# A549 [4] = test: Antiproliferative activity against human A549 cells assessed as inhibition of cell growth incubated for 48 hrs by MTT assay; assay type: functional, cell-based; conditions: A549, 48 h
# HepG2 = test: Antiproliferative activity against human HepG2 cells assessed as inhibition of cell growth incubated for 48 hrs by MTT assay; assay type: functional, cell-based; conditions: HepG2, 48 h
# PC-3 = test: Antiproliferative activity against human PC-3 cells assessed as inhibition of cell growth incubated for 48 hrs by MTT assay; assay type: functional, cell-based; conditions: PC-3, 48 h
# NCI/ADR-RES [5] = test: Induction of NO release in human MCF7ADR cells at 100 uM by Griess reagent assay; assay type: functional, cell-based; conditions: time <= 10.0 hrs
# [6] = molecular target: T1, ATP-dependent translocase ABCB1 (Homo sapiens, UniProt P08183); test: Inhibition of P-gp-mediated rhodamine-123 efflux in human MCF-7/ADR cells assessed as increase in Rh123 accumulation incubated for 4 hrs by flow cytometry analysis; assay type: cell-based; conditions: at 10 to 50 nM, dose 10-50 nM
# NCI/ADR-RES [7] = test: Inhibition of colony formation in human MCF7ADR cells assessed as reduction in colony growth at 40 to 50 nM incubated for 12 days by crystal violet staining based assay; assay type: functional, cell-based; conditions: dose 40-50 nM, time 12.0 day
# A549/TR [8] = test: Antiproliferative activity against human A549/Taxol cells assessed as inhibition of cell growth incubated for 48 hrs by MTT assay; assay type: functional, cell-based
# [9] = Selectivity index, ratio of IC50 for antiproliferative activity against human A549 cells assessed as inhibition of cell growth to IC50 for antiproliferative activity against human A549/Taxol cells assessed as inhibition of cell growth; assay type: functional
# [10] = Cytotoxicity against human MCF-10A cells assessed as inhibition of cell growth incubated for 48 hrs by MTT assay; assay type: toxicity, cell-based
# [11] = Cytotoxicity against human BEAS-2B cells assessed as inhibition of cell growth incubated for 48 hrs by MTT assay; assay type: toxicity, cell-based
# NCI/ADR-RES [12] = test: Induction of NO release in human MCF7ADR cells at 100 uM measured for 5 hrs by Griess reagent assay; assay type: functional, cell-based
# [13] = molecular target: T1, ATP-dependent translocase ABCB1; test: Inhibition of P-gp-mediated rhodamine-123 efflux in human MCF7 cells assessed as increase in Rh123 accumulation incubated for 4 hrs by flow cytometry analysis; assay type: cell-based; conditions: mcf7, 4 h, at 10 to 50 nM, dose 10-50 nM
# NCI/ADR-RES [14] = test: Induction of NO release in human MCF7ADR cells by DAF-FM DA probe based analysis; assay type: functional, cell-based; conditions: dose 50-100 nM
# NCI/ADR-RES [15] = test: Upregulation of P-gp expression in human MCF-7/ADR cells at 25 to 100 nM incubated for 24 hrs by Western blot analysis; assay type: functional, cell-based; conditions: dose 25-100 nM
# MCF7 [16] = test: Upregulation of P-gp expression in human MCF7 cells at 25 to 100 nM incubated for 24 hrs by Western blot analysis; assay type: functional, cell-based; conditions: dose 25-100 nM
# A549/TR [17] = test: Upregulation of P-gp expression in human A549/Taxol cells at 1 to 4 uM incubated for 24 hrs by Western blot analysis; assay type: functional, cell-based; conditions: dose 1-4 µM
# A549 [18] = test: Upregulation of P-gp expression in human A549 cells at 1 to 4 uM incubated for 24 hrs by Western blot analysis; assay type: functional, cell-based; conditions: dose 1-4 µM
# [19] = Drug localization in lysosome of human MCF-7/ADR cells assessed as emission of yellow fluorescence incubated for 1 hr by DAPI staining based laser scanning confocal microscopic analysis; assay type: ADME, subcellular
# [20] = Induction of NO release in lysosome of human MCF-7/ADR cells assessed as increase in green fluorescence intensity at 100 nM by Lyso-NO probe based laser scanning confocal microscopic analysis; assay type: subcellular; conditions: 0.1 µM, time 1-3 hrs
# [21] = Induction of NO release in lysosome of human A549/Taxol cells assessed as increase in green fluorescence intensity at 100 nM by Lyso-NO probe based laser scanning confocal microscopic analysis; assay type: subcellular; conditions: 0.1 µM, time 1-3 hrs
# Lysosomal membrane = test: Induction of lysosomal membrane permeabilization in human MCF7ADR cells assessed as increase fluorescence intensity incubated for 6 hrs by LysoTracker red probe based laser scanning confocal microscopic analysis; assay type: subcellular; conditions: dose 50-100 nM
# NCI/ADR-RES [22] = test: Upregulation of m-CTSD expression in human MCF7ADR cells at 50 to 100 nM incubated for 24 hrs by Western blot analysis; assay type: functional, cell-based; conditions: dose 50-100 nM
# NCI/ADR-RES [23] = test: Induction of ROS production in human MCF-7/ADR cells in presence of elacridar; assay type: functional, cell-based
# NCI/ADR-RES [24] = test: Induction of ROS production in human MCF-7/ADR cells in presence of NAC; assay type: functional, cell-based
# NCI/ADR-RES [25] = test: Induction of apoptosis in human MCF7ADR cells at 25 to 50 nM incubated for 24 hrs by Annexin V-FITC/PI staining based flow cytometry analysis; assay type: functional; conditions: dose 25-50 nM
# NCI/ADR-RES [26] = test: Induction of apoptosis in human MCF7ADR cells incubated for 24 hrs by Annexin V-FITC/PI staining based flow cytometry analysis; assay type: functional, cell-based; conditions: dose 25-50 nM
# NCI/ADR-RES [27] = test: Upregulation of Bax expression in human MCF7ADR cells incubated for 24 hrs by Western blot analysis; assay type: functional, cell-based; conditions: dose 25-50 nM
# NCI/ADR-RES [28] = test: Downregulation of Bcl-2 expression in human MCF7ADR cells incubated for 24 hrs by Western blot analysis; assay type: functional, cell-based; conditions: dose 25-50 nM
# NCI/ADR-RES [29] = test: Induction of apoptosis in human MCF7ADR cells assessed as increase in PARP1 cleavage at 25 to 50 nM incubated for 24 hrs by Western blot analysis; assay type: functional, cell-based; conditions: dose 25-50 nM
# NCI/ADR-RES [30] = test: Upregulation of Caspase-3 expression in human MCF7ADR cells at 25 to 50 nM incubated for 24 hrs by Western blot analysis; assay type: functional, cell-based; conditions: dose 25-50 nM
# NCI/ADR-RES [31] = test: Inhibition of colony formation in human MCF7ADR cells assessed as reduction in colony growth at 40 nM incubated for 12 days in presence of hemoglobin by crystal violet staining based assay; assay type: functional, cell-based; conditions: time 12.0 day
# NCI/ADR-RES [32] = test: Induction of cell cycle arrest in human MCF7ADR cells assessed as accumulation of cells at G2/M phase at 20 nM incubated for 24 hrs by flow cytometry analysis (reference value: 11.2%); assay type: functional
# NCI/ADR-RES [33] = test: Induction of cell cycle arrest in human MCF7ADR cells assessed as accumulation of cells at G2/M phase at 30 nM incubated for 24 hrs by flow cytometry analysis (reference value: 11.2%); assay type: functional
# NCI/ADR-RES [34] = test: Induction of cell cycle arrest in human MCF7ADR cells assessed as accumulation of cells at G2/M phase at 40 nM incubated for 24 hrs by flow cytometry analysis (reference value: 11.2%); assay type: functional
# NCI/ADR-RES [35] = test: Antitumor activity against human MCF7ADR cells xenografted in BALB/c mouse at 1.25 to 5 mg/kg, ip measured for 21 days; assay type: functional, organism-based; conditions: dose 1.25-5 mg/kg, time 21.0 day
# NCI/ADR-RES [36] = test: Antitumor activity against human MCF7ADR cells xenografted in BALB/c mouse at 1.25 mg/kg, ip measured for 21 days; assay type: functional, organism-based; conditions: time 21.0 day
# NCI/ADR-RES [37] = test: Antitumor activity against human MCF7ADR cells xenografted in BALB/c mouse assessed as inhibition of tumor volume at 5 mg/kg, ip measured for 21 days; assay type: functional; conditions: 504 h, time 21 day
# NCI/ADR-RES [38] = test: Antitumor activity against human MCF7ADR cells xenografted in ip dosed BALB/c mouse assessed as decrease in ki67 expression measured for 21 days; assay type: functional, organism-based; conditions: dose 1.25-5 mg/kg, time 21.0 day
# [39] = Toxicity in BALB/c mouse xenografted with human MCF7ADR cells assessed as change in body weight at 1.25 to 5 mg/kg, ip measured for 21 days; assay type: organism-based; conditions: in vivo, 504 h, dose 1.25-5 mg/kg, time 21 day
# [40] = Toxicity in BALB/c mouse xenografted with human MCF7ADR cells assessed as lung damage at 1.25 to 5 mg/kg, ip measured for 21 days by H and E staining based analysis; assay type: organism-based; conditions: in vivo, 504 h, dose 1.25-5 mg/kg, time 21 day
# [41] = Toxicity in BALB/c mouse xenografted with human MCF7ADR cells assessed as kidney damage at 1.25 to 5 mg/kg, ip measured for 21 days by H and E staining based analysis; assay type: organism-based; conditions: in vivo, 504 h, dose 1.25-5 mg/kg, time 21 day
# [42] = Toxicity in BALB/c mouse xenografted with human MCF7ADR cells assessed as spleen damage at 1.25 to 5 mg/kg, ip measured for 21 days by H and E staining based analysis; assay type: organism-based; conditions: in vivo, 504 h, dose 1.25-5 mg/kg, time 21 day
# [43] = Toxicity in BALB/c mouse xenografted with human MCF7ADR cells assessed as liver damage at 1.25 to 5 mg/kg, ip measured for 21 days by H and E staining based analysis; assay type: organism-based; conditions: in vivo, 504 h, dose 1.25-5 mg/kg, time 21 day
# [44] = Toxicity in BALB/c mouse xenografted with human MCF7ADR cells assessed as heart damage at 1.25 to 5 mg/kg, ip measured for 21 days by H and E staining based analysis; assay type: organism-based; conditions: in vivo, 504 h, dose 1.25-5 mg/kg, time 21 day
# T1 sequence (P08183 whole entry): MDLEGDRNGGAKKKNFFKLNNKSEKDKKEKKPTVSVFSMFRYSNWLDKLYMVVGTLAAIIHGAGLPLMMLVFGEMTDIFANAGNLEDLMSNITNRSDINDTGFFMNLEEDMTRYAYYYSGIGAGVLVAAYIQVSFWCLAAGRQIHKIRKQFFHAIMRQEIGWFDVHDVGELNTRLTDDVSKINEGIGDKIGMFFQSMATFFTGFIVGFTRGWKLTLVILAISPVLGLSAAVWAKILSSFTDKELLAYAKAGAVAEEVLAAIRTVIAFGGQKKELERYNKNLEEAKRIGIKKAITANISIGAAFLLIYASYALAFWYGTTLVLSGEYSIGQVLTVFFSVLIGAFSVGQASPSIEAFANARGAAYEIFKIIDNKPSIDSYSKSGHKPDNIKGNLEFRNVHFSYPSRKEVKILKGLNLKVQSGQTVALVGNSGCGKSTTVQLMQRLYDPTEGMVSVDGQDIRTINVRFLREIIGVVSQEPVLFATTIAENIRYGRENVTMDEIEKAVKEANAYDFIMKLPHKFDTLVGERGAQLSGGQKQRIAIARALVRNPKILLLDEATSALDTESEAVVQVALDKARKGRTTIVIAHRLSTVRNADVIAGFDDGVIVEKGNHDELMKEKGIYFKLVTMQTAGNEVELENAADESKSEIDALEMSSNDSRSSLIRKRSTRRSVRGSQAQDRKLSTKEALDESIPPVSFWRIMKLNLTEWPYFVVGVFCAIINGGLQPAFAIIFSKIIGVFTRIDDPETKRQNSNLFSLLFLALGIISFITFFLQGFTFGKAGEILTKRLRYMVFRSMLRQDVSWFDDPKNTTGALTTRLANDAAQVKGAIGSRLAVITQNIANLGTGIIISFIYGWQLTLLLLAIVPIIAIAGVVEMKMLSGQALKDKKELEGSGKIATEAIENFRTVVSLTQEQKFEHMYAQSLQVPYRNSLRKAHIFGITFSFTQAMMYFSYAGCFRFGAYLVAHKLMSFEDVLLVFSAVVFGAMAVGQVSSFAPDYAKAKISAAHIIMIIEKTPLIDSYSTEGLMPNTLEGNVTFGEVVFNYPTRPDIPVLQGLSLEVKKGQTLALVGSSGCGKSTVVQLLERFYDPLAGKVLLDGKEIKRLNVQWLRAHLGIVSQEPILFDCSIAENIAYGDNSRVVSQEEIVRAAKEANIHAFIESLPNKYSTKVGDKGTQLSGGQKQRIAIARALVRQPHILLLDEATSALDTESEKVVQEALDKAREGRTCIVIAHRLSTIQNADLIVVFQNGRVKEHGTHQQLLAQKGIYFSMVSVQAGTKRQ
compound,measurement,setting,value
O=[N+]([O-])c1ccc(O/N=[N+](\[O-])N2CCN(Cc3ccc4c(c3O)Oc3cccc(c3)CCc3ccc(O)c(c3)Oc3ccc(cc3)CC4)CC2)c([N+](=O)[O-])c1,IC50,MCF7 [1],> 20 µM
same,IC50,NCI/ADR-RES [2],> 3 µM
same,Ratio IC50,[3],<7
same,IC50,A549 [4],> 40 µM
same,IC50,HepG2,> 20 µM
same,IC50,PC-3,> 20 µM
same,Activity,NCI/ADR-RES [5],Time-dependent-effect
O=S(=O)(c1ccccc1)c1c(OCCCOc2cccc3c2Oc2cccc(c2)CCc2ccc(O)c(c2)Oc2ccc(cc2)CC3)no[n+]1[O-],inhibition (INH),[6],Dose-dependent-effect
same,inhibition,NCI/ADR-RES [7],Active
same,IC50,MCF7 [1],21.2 µM
same,IC50,NCI/ADR-RES [2],0.024 µM
same,Ratio IC50,[3],883
same,IC50,A549 [4],23.8 µM
same,IC50,A549/TR [8],1.43 µM
same,Ratio IC50,[9],17
same,IC50,HepG2,6.57 µM
same,IC50,PC-3,3.36 µM
same,IC50 at 48 h,[10],14.3 µM
same,IC50 at 48 h,[11],14.8 µM
same,Activity,NCI/ADR-RES [12],Active
same,inhibition (INH),[13],Dose-dependent-effect
same,Activity,NCI/ADR-RES [14],Dose-dependent-effect
same,Activity,NCI/ADR-RES [5],Time-dependent-effect
same,Activity,NCI/ADR-RES [15],Active
same,Activity,MCF7 [16],inactive
same,Activity,A549/TR [17],Active
same,Activity,A549 [18],Active
same,Drug uptake,[19],Active
same,Activity,[20],Time-dependent-effect
same,Activity,[21],Time-dependent-effect
same,Activity,Lysosomal membrane,Dose-dependent-effect
same,Activity,NCI/ADR-RES [22],Active
same,Activity,NCI/ADR-RES [23],Active
same,Activity,NCI/ADR-RES [24],Active
same,Activity,NCI/ADR-RES [25],8.6%
same,Activity,NCI/ADR-RES [26],Dose-dependent-effect
same,Activity,NCI/ADR-RES [27],Dose-dependent-effect
same,Activity,NCI/ADR-RES [28],Dose-dependent-effect
same,Activity,NCI/ADR-RES [29],Active
same,Activity,NCI/ADR-RES [30],Active
same,inhibition,NCI/ADR-RES [31],Active
same,Activity,NCI/ADR-RES [32],18.1%
same,Activity,NCI/ADR-RES [33],20.3%
same,Activity,NCI/ADR-RES [34],25.3%
same,Activity,NCI/ADR-RES [35],Active; Displayed Strong Antitumor Activity Than Ptx
same,Activity,NCI/ADR-RES [36],Active
same,inhibition in vivo at 5 mg/kg,NCI/ADR-RES [37],62.7%
same,Activity,NCI/ADR-RES [38],Dose-dependent-effect
same,Activity,[39],Non-toxic
same,Activity,[40],Non-toxic
same,Activity,[41],Non-toxic
same,Activity,[42],Non-toxic
same,Activity,[43],Non-toxic
same,Activity,[44],Non-toxic
O=S(=O)(c1ccccc1)c1c(OCCCCCCOc2cccc3c2Oc2cccc(c2)CCc2ccc(O)c(c2)Oc2ccc(cc2)CC3)no[n+]1[O-],IC50,MCF7 [1],> 20 µM
same,IC50,NCI/ADR-RES [2],0.37 µM
same,Ratio IC50,[3],>54
same,IC50,A549 [4],> 40 µM
same,IC50,A549/TR [8],6.65 µM
same,Ratio IC50,[9],>6
same,IC50,HepG2,> 20 µM
same,IC50,PC-3,> 20 µM
same,IC50 at 48 h,[10],> 20 µM
same,IC50 at 48 h,[11],> 20 µM
